Measured values reported in patent US20050265999A1, “Modulation of 5-HT2 receptors as a treatment for cardiovascular diseases” (Myogen, Inc., priority 2003, published 2005).

Legend:
5-HT2B = biological target: T1, 5-HT2B (Homo sapiens, UniProt P41595); experiment: Radioligand receptor binding assay (MDS Pharma); conditions: 10 μM compound, n=2
T1 construct: purchased MDS Pharma services 271700
Method: (§1) Receptor binding assays. Receptor binding assays were performed by MDS Pharma services. Assays included: Adenosine A1 (cat# 200510), Adenosine A2A (cat# 200610), Adenosine A3 (cat# 200720), Adrenergic alpha 1 (cat# 203500), Imidazoline 12 central (cat# 241000), Imidazoline I2 peripheral (cat# 241100), Inositol triphosphate (cat# 242500), Phorbol Ester (cat# 264500), 5-HT 2B (cat# 271700), and 5-HT 4 (cat# 272000).
(§2) • Summary of radioligand binding assays for 11 receptors. Data represent % inhibition of ligand binding in the presence of 10 μM 18264 (n=2).
• Summary of radioligand binding assays for three receptors. Data represent % inhibition of ligand binding in the presence of 10 μM 20068 (n=2).

Adenosine A3 = biological target: T2, Adenosine A3 (Homo sapiens, UniProt P0DMS8); experiment: Radioligand receptor binding assay (MDS Pharma); conditions: 10 μM compound, n=2
T2 construct: purchased MDS Pharma services 200720
T2 sequence (P0DMS8 1-318): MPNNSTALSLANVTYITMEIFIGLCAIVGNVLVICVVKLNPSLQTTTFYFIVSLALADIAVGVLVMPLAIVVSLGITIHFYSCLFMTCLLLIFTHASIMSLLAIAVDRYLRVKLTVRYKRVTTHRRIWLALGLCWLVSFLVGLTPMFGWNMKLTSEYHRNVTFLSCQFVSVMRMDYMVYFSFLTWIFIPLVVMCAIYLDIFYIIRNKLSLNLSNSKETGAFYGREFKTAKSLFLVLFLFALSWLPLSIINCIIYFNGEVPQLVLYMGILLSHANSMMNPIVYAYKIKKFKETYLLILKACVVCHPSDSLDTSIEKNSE
Method: as §1, §2

Adenosine A2A = biological target: T3, Adenosine A2A (Homo sapiens, UniProt P29274); experiment: Radioligand receptor binding assay (MDS Pharma); conditions: 10 μM compound, n=2
T3 construct: purchased MDS Pharma services 200610
T3 sequence (P29274 whole entry): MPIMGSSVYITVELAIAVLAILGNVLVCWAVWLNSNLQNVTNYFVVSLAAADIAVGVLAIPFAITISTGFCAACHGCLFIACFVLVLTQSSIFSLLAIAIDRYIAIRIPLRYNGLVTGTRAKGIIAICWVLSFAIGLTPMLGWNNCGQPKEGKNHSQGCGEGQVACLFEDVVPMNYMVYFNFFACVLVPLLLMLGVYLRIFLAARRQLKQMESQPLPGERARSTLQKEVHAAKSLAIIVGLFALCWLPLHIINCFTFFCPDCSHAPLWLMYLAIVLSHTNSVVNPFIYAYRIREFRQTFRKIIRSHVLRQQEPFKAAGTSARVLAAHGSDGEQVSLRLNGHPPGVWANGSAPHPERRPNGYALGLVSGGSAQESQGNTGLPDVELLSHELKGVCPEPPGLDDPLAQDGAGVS
Method: as §1, §2

Imidazoline I2, central = experiment: Radioligand receptor binding assay (MDS Pharma); conditions: 10 μM compound, n=2
Method: as §1, §2

Phorbol Ester = experiment: Radioligand receptor binding assay (MDS Pharma); conditions: 10 μM compound, n=2
Method: as §1, §2

5-HT4 = biological target: T4, 5-HT4 (Cavia porcellus, UniProt O70528); experiment: Radioligand receptor binding assay (MDS Pharma)
T4 construct: purchased MDS Pharma services 272000
T4 sequence (O70528 whole entry): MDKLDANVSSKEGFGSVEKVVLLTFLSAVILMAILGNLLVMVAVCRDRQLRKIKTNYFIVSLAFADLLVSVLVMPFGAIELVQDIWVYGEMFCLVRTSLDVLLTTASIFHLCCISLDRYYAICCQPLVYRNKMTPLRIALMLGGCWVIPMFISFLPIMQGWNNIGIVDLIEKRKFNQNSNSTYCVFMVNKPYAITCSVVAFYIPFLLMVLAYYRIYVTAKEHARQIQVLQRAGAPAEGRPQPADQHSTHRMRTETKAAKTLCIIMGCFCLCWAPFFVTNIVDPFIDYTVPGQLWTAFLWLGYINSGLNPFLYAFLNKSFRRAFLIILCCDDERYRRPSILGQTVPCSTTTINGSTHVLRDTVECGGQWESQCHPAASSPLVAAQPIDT
Method: as §1, §2

[1] = biological target: T5, Inositol Triphosphate IP3 (Rattus norvegicus, UniProt P29994); experiment: Radioligand receptor binding assay (MDS Pharma); conditions: 10 μM compound, n=2
T5 construct: purchased MDS Pharma services 242500
T5 sequence (P29994 whole entry): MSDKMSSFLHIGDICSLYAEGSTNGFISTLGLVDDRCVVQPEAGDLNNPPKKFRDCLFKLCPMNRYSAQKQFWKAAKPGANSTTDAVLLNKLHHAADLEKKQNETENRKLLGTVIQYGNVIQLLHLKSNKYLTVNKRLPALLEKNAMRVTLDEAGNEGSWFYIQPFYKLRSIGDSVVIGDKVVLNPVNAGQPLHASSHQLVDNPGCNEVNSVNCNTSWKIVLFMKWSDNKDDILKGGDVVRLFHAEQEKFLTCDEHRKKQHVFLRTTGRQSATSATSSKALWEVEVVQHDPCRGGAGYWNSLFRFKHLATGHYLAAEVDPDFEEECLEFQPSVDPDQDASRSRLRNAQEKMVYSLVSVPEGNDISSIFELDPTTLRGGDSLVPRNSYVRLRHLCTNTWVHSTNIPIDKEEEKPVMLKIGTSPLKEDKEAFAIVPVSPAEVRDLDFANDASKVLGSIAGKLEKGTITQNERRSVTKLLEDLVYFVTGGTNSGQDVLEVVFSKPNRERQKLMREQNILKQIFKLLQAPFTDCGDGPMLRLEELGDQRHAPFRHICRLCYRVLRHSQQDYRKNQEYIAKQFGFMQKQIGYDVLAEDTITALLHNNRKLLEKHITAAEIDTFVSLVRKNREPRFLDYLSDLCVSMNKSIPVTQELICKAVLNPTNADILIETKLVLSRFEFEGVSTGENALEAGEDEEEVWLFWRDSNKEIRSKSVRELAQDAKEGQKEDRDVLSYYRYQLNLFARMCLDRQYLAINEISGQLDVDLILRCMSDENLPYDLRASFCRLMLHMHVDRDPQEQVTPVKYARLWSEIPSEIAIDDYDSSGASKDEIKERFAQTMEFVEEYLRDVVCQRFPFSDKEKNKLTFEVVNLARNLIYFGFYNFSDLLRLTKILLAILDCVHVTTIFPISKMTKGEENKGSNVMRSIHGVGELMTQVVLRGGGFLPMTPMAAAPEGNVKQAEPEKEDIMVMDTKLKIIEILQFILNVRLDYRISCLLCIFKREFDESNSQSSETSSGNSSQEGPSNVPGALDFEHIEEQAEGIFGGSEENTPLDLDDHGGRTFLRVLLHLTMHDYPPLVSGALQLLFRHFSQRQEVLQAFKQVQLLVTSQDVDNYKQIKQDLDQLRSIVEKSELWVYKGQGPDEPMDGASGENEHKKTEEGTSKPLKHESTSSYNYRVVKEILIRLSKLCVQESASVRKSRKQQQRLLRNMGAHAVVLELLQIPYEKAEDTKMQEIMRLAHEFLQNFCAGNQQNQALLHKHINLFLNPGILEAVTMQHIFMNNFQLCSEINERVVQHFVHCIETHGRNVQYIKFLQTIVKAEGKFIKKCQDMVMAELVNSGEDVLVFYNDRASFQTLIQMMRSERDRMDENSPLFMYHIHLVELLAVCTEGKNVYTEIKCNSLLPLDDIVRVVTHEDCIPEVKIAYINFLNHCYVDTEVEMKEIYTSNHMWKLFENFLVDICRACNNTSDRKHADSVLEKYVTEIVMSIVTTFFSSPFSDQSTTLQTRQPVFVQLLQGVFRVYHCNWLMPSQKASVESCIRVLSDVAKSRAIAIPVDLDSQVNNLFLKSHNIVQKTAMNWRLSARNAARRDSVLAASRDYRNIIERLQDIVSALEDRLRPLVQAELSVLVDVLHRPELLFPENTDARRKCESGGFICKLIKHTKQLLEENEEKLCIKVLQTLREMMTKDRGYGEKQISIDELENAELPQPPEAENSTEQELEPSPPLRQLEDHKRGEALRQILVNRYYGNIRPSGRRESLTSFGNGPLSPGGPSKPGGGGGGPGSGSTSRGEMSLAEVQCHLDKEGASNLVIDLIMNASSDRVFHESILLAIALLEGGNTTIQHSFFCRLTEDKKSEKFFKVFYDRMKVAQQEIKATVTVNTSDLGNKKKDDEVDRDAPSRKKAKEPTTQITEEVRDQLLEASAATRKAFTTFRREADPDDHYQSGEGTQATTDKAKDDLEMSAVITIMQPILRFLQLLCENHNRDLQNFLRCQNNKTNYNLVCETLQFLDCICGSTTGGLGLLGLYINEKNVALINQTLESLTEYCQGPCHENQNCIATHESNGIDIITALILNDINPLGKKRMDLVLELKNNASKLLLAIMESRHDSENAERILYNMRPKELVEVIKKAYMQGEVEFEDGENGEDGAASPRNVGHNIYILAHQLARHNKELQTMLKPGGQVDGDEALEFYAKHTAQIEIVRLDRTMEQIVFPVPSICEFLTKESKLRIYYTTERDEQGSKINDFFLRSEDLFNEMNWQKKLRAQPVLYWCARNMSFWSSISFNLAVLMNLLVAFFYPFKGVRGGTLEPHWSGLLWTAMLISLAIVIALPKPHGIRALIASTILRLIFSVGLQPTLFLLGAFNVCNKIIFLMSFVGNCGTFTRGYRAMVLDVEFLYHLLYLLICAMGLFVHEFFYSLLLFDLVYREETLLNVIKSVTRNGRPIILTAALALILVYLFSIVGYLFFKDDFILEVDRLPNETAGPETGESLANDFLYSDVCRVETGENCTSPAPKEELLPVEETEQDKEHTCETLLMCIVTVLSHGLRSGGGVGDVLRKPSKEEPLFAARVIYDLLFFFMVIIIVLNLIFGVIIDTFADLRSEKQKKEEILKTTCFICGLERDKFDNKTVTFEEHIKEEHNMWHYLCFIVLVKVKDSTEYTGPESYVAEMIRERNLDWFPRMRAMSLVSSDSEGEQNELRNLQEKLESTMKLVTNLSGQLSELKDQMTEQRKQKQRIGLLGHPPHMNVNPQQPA
Method: as §1, §2

Adenosine A1 = biological target: T6, Adenosine A1 (Homo sapiens, UniProt P30542); experiment: Radioligand receptor binding assay (MDS Pharma); conditions: 10 μM compound, n=2
T6 construct: purchased MDS Pharma services 200510
T6 sequence (P30542 1-326): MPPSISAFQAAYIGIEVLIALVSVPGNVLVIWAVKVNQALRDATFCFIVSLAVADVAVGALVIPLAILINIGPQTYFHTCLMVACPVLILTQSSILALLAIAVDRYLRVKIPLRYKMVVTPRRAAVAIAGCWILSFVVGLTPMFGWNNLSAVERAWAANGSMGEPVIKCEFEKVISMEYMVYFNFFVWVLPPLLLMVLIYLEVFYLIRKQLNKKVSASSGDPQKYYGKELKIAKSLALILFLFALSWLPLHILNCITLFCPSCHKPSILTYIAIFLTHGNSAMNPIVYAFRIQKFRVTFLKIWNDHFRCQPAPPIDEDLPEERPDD
Method: as §1, §2

Adrenergic alpha 1 = experiment: Radioligand receptor binding assay (MDS Pharma); conditions: 10 μM compound, n=2
Method: as §1, §2

[2] = tested on: Imidazoline I2, peripheral; experiment: Radioligand receptor binding assay (MDS Pharma); conditions: 10 μM compound, n=2
Method: as §1, §2

HDAC5 = experiment: HDAC localization assay, GFP-HDAC5 in NRVM; assay type: cell-based, rat; conditions: NRVM, two hours; 18264 1 μM, PE 20 μM
Method: (§3) NRVM culture. For preparations of neonatal rat ventricular myocytes (NRVMs), hearts were removed from 10-20 newborn (1-2 days old) Sprague-Dawley rats. Isolated ventricles were pooled, minced and dispersed by three 20-min incubations at 37° C. in Ads buffer (116 mM NaCl, 20 mM HEPES, 10 mM NaH2PO4, 5.5 mM glucose, 5 mM KCl, 0.8 mM MgSO4, pH 7.4) containing collagenase Type II (65 units/ml, Worthington) and pancreatin (0.6 mg/ml, GibcoBRL). Dispersed cells were applied to a discontinuous gradient of 40.5% and 58.5% (v/v) Percoll (Amersham Biosciences), centrifuged, and myocytes collected from the interface layer. Myocyte preparations were pre-plated in Dulbecco's modified Eagle's medium (DMEM, Cellgro), supplemented with 10% (v/v) fetal bovine serum (FBS, HyClone), 4 mM L-glutamine and 1% penicillin/streptomycin for 1 hour at 37° C. to reduce fibroblast contamination, then plated at a density of 2.5×10^5 cells per well on 6-well tissue culture plates (or 10,000 cells/well on 96-well tissue culture plates) coated with a 0.2% (w/v) gelatin solution. After 24 hours in culture, myocyte preparations were transferred to serum-free maintenance medium (DMEM supplemented with 0.1% (v/v) Nutridoma (Roche), L-glutamine and penicillin/streptomycin). Where indicated, NRVM were treated with test compounds for a period of 48 h. For immunofluorescence applications, NRVM cultures were fixed, incubated with primary antibodies against alpha skeletal actin and atrial natriuretic factor, then incubated with rhodamine- or flurorescein-conjugated secondary antibodies. For HDAC localization assays, NRVM were plated to clear bottomed 96-well plates and infected overnight with recombinant adenovirus encoding HDAC5 fused to green fluorescent protein (multiplicity of infection=50). The next day, medium was replaced with serum-free maintenance medium for 4 hours, and test compounds added. After two hours, NRVM were fixed and imaged by fluorescent microscopy.

[3] = tested on: neonatal rat ventricular myocytes (NRVM); experiment: Total cellular protein (Coomassie dye-binding) in NRVM; assay type: cell-based; conditions: NRVM stimulated with compound alone
Method: NRVM culture. For preparations of neonatal rat ventricular myocytes (NRVMs), hearts were removed from 10-20 newborn (1-2 days old) Sprague-Dawley rats. Isolated ventricles were pooled, minced and dispersed by three 20-min incubations at 37° C. in Ads buffer (116 mM NaCl, 20 mM HEPES, 10 mM NaH2PO4, 5.5 mM glucose, 5 mM KCl, 0.8 mM MgSO4, pH 7.4) containing collagenase Type II (65 units/ml, Worthington) and pancreatin (0.6 mg/ml, GibcoBRL). Dispersed cells were applied to a discontinuous gradient of 40.5% and 58.5% (v/v) Percoll (Amersham Biosciences), centrifuged, and myocytes collected from the interface layer. […]
Hypertrophy and toxicity assays. Primary hypertrophy endpoints for NRVM included quantitation of: ANF secretion, total cellular protein and cell volume. ANF in media supernatants was quantitated by competitive ELISA using a monoclonal anti-ANF antibody (Biodesign) and a biotinylated ANF peptide (Phoenix Peptide). Total cellular protein was quantitated by standard Coomassie dye-binding assay; cells were lysed in protein assay reagent (BioRad) and absorbance at A595 was measured after 1 hour. […] After recovery by centrifugation, cell pellets were washed in PBS, resuspended in 10 ml IsoFlow electrolyte solution (Beckman-Coulter) and analyzed with a Z2 Coulter Particle Counter and Size Analyzer (Beckman-Coulter). […]

[4] = tested on: primary rat neonatal cardiomyocytes; experiment: Immunofluorescence / morphology of cardiomyocyte hypertrophy in NRVM; assay type: cell-based; conditions: 1 μM, 48 h
Method: as §3, with “For immunofluorescence applications, NRVM cultures were fixed, incubated with primary antibodies against alpha skeletal actin and atrial natriuretic factor, then incubated with rhodamine- or flurorescein-conjugated secondary antibodies. For HDAC localization assays, NRVM were plated to clear bottomed 96-well plates and infected overnight with recombinant adenovirus encoding HDAC5 fused to green fluorescent protein (multiplicity of infection=50). The next day, medium was replaced with serum-free maintenance medium for 4 hours, and test compounds added. After two hours, NRVM were fixed and imaged by fluorescent microscopy.” left out

T1 sequence (P41595 whole entry): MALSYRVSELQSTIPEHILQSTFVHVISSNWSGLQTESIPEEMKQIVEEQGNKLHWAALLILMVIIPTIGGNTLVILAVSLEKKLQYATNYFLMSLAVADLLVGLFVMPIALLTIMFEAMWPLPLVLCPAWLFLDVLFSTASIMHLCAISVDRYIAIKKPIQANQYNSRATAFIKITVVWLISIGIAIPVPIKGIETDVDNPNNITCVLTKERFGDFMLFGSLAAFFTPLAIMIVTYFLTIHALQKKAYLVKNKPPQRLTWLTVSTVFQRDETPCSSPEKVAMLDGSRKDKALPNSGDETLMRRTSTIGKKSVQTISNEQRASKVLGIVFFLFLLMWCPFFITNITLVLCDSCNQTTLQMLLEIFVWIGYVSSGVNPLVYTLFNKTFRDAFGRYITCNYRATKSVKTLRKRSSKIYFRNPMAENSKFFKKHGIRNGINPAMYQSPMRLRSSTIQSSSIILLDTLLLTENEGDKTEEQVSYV

- inhibition at 10 µM (5-HT2B): 97%
- inhibition at 10 µM (Adenosine A3): 24%
- inhibition at 10 µM (Adenosine A2A): 14%
- % Inhibition of Binding (Imidazoline I2, central): 15%
- % Inhibition of Binding (Phorbol Ester): 2%
- inhibition at 10 µM (5-HT4; 10 μM compound, n=2): 17%
- binding (in words) (5-HT4; radioligand binding, 10 μM): No significant binding
- inhibition at 10 µM [1]: 3%
- inhibition at 10 µM (Adenosine A1): 17%
- % Inhibition of Binding (Adrenergic alpha 1): 17%
- % Inhibition of Binding [2]: 4%
- total cellular protein [3]: increased
Compound: Cc1c(-c2ccccc2)nc2sc3c(c2c1N)CCCC3 [Compound 18264, 3-Methyl-2-phenyl-5,6,7,8-tetrahydro-benzo[4,5]thieno[2,3-b]pyridin-4-ylamine]
- nuclear export of HDAC5-GFP (HDAC5): driven from the nucleus to the cytoplasm
- induction of myocyte hypertrophy (enlargement, sarcomere assembly) [4]: extraordinarily potent inducer of myocyte hypertrophy
